Values quoted from earlier work as cited in article PMC7377239, “Cardiovascular Effects of Polychlorinated Biphenyls and Their Major Metabolites” (Environmental Health Perspectives, 2020).

Test system: porcine pulmonary artery–derived EC
Set-up: method as in Hennig et al. 2002, 2005; Toborek et al. 1995
Conditions: ref Hennig et al. 2002, 2005, Toborek et al. 1995; cited from earlier work

Structure (SMILES)	EC toxicity
Clc1ccc(-c2ccc(Cl)c(Cl)c2)cc1Cl [PCB 77]	potent inducers of EC toxicity
Clc1ccc(-c2cc(Cl)c(Cl)c(Cl)c2Cl)cc1 [PCB 114]	potent inducers of EC toxicity
Clc1ccc(-c2cc(Cl)c(Cl)cc2Cl)cc1Cl [PCB 118]	potent inducers of EC toxicity
